Results taken from US20230381157A1, “RIFABUTIN FOR THE TREATMENT OF ACINETOBACTER BAUMANNII” (University of Southern California, priority 2018, published 2023).
In brackets after ≈: the same amount, converted by molar mass. Several values for one entry are separate records, joined by “and”; a condition that tells them apart may be missing. Identical values can stand only once. Like-named read-outs stand apart in the source and are kept apart here.

Tests used:
A. baumannii HUMC1 [1] = experiment: MIC, broth microdilution in MHII, RPMI or modified media; assay type: cell-based, Acinetobacter baumannii
HEK293T = experiment: Specificity: mammalian cell cytotoxicity / inhibition of bacteria growth (CC50/IC50)
A. baumannii ATCC 17978 = experiment: IC50 dose response, inhibition of bacterial growth (BacTiter-Glo viability); assay type: cell-based, Acinetobacter baumannii; conditions: 11-point dose response, read-out: IC50
A. baumannii HUMC1 [2] = experiment: as above; assay type: cell-based, Acinetobacter baumannii; conditions: 11-point dose response, read-out: IC50
K. pneumonia = experiment: MIC, broth microdilution; assay type: cell-based; conditions: Klebsiella pneumoniae, read-out: MIC
E. coli JJ1886 = assay type: cell-based, Escherichia coli; conditions: TSA
A. baumannii HUMC1 [3] = assay type: in vivo, mouse
A. baumannii [4] = experiment: MIC, broth microdilution, A. baumannii clinical isolates / strain panel; assay type: cell-based, Acinetobacter baumannii; conditions: Acinetobacter baumannii; for MIC: read-out: MIC; for MIC50 / MIC90: A. baumannii strain panel; for MIC50: read-out: MIC50; for MIC90: read-out: MIC90
A. baumannii [5] = assay type: cell-based, Acinetobacter baumannii
A. baumannii HUMC1 [6] = assay type: in vivo, mouse; remark: listed apart in the source
E. coli = experiment: MIC, broth microdilution; assay type: cell-based; conditions: Escherichia coli, E. coli JJ1886
Acinetobacter baumannii = experiment: Galleria mellonella infection model; assay type: in vivo; conditions: Galleria mellonella; doses as high as 5 mg/kg
S. aureus LAC [7] = experiment: microbe, parasite or virus in culture; assay type: cell-based; conditions: Staphylococcus aureus, read-out: MIC
S. aureus LAC [8] = assay type: cell-based, Staphylococcus aureus; conditions: TSA
[9] = IC50 vs A. baumannii ATCC 17978, RPMI + 50% serum
[10] = IC50 vs A. baumannii ATCC 17978, RPMI alone
[11] = IC50 vs A. baumannii HUMC1, RPMI + 50% serum
[12] = IC50 vs A. baumannii HUMC1, RPMI alone
[13] = Acinetobacter baumannii, ATCC17978, ATCC 17978, RPMI + 50% Serum
[14] = Acinetobacter baumannii, ATCC17978, ATCC 17978, RPMI
[15] = Acinetobacter baumannii, HUMC1, 24 h, HUMC1, RPMI + 50% Serum
[16] = Acinetobacter baumannii, HUMC1, HUMC1, RPMI + 50% Serum
[17] = Acinetobacter baumannii, HUMC1, HUMC1, RPMI

N#CC(C#N)=NNc1cccc(Cl)c1 [CCCP]
MIC of efflux pump inhibitor alone (A. baumannii HUMC1 [1]; HUMC1, inhibitor alone): 8 µg/mL

CO[C@H]1/C=C/O[C@@]2(C)Oc3c(C)c(O)c4c(O)c(c(/C=N/N=C/N5CCCCC5)c(O)c4c3C2=O)NC(=O)/C(C)=C\C=C\[C@H](C)[C@H](O)[C@@H](C)[C@@H](O)[C@@H](C)[C@H](OC(C)=O)[C@@H]1C [FCE-22250]
Specificity HEK293T (CC50/IC50) (HEK293T; [9]): 0.950
Specificity HEK293T (CC50/IC50) (HEK293T; [10]): 3.441
Specificity HEK293T (CC50/IC50) (HEK293T; [11]): 1.545
Specificity HEK293T (CC50/IC50) (HEK293T; [12]): 3.710
IC50 (A. baumannii ATCC 17978; ATCC 17978, RPMI + 50% Serum): 35.3 µM
IC50 (A. baumannii ATCC 17978; ATCC 17978, RPMI): 9.74 µM
IC50 (A. baumannii HUMC1 [2]; HUMC1, RPMI + 50% Serum): 21.7 µM
IC50 (A. baumannii HUMC1 [2]; HUMC1, RPMI): 9.03 µM

CO[C@H]1/C=C/O[C@@]2(C)Oc3c(C)c(O)c4c(=O)c(c5oc6cc(N7CCN(CC(C)C)CC7)cc(O)c6nc-5c4c3C2=O)NC(=O)/C(C)=C\C=C\[C@H](C)[C@H](O)[C@@H](C)[C@@H](O)[C@@H](C)[C@H](OC(C)=O)[C@@H]1C [rifalazil]
Specificity HEK293T (CC50/IC50) (HEK293T; [9]): 0.609
Specificity HEK293T (CC50/IC50) (HEK293T; [10]): 1.752
Specificity HEK293T (CC50/IC50) (HEK293T; [11]): 4.055
Specificity HEK293T (CC50/IC50) (HEK293T; [12]): 1.523
IC50 (A. baumannii ATCC 17978; [13]): 50 µM
IC50 (A. baumannii ATCC 17978; [14]): 17.4 µM
IC50 (A. baumannii HUMC1 [2]; [15]): 7.51 µM
IC50 (A. baumannii HUMC1 [2]; [16]): 7.51 µM
IC50 (A. baumannii HUMC1 [2]; [17]): 20 µM

CO[C@H]1/C=C/O[C@@]2(C)Oc3c(C)c(O)c4c(O)c(c(/C=N/N5CCN(C)CC5)c(O)c4c3C2=O)NC(=O)/C(C)=C\C=C\[C@H](C)[C@H](O)[C@@H](C)[C@@H](O)[C@@H](C)[C@H](OC(C)=O)[C@@H]1C [rifampin]
MIC (K. pneumonia; K. pneumonia KP-3, MHII): 3.12 µg/mL (≈ 3.8 µM)
MIC (K. pneumonia; K. pneumonia KP-3, RPMI): 1.56 µg/mL (≈ 1.9 µM)
MIC (K. pneumonia; K. pneumonia KPC-KP1, MHII): 25 µg/mL (≈ 30.4 µM)
MIC (K. pneumonia; K. pneumonia KPC-KP1, RPMI): 50 µg/mL (≈ 60.8 µM)
Mutation Frequency (E. coli JJ1886): 2.21E−08
Specificity HEK293T (CC50/IC50) (HEK293T; [9]): 2.741
Specificity HEK293T (CC50/IC50) (HEK293T; [10]): 3.621
Specificity HEK293T (CC50/IC50) (HEK293T; [11]): 6.256
Specificity HEK293T (CC50/IC50) (HEK293T; [12]): 4.538
IC50 (A. baumannii ATCC 17978; Acinetobacter baumannii, ATCC17978, 24 h, ATCC 17978, RPMI + 50% Serum): 18.2 µM
IC50 (A. baumannii ATCC 17978; [13]): 18.2 µM
IC50 (A. baumannii ATCC 17978; [14]): 13.8 µM
MIC (A. baumannii HUMC1 [1]; Acinetobacter baumannii, HUMC1, HUMC1, 0.01% Triton X-100, read-out: MIC): 2 µg/mL (≈ 2.43 µM)
MIC (A. baumannii HUMC1 [1]; Acinetobacter baumannii, HUMC1, HUMC1, 0.05% Tween 20, MHII, read-out: MIC): 2 µg/mL (≈ 2.43 µM)
MIC (A. baumannii HUMC1 [1]; Acinetobacter baumannii, HUMC1, HUMC1, 25° C., MHII, read-out: MIC): 2 µg/mL (≈ 2.43 µM)
MIC (A. baumannii HUMC1 [1]; Acinetobacter baumannii, HUMC1, HUMC1, 25° C., RPMI, read-out: MIC): 2 µg/mL (≈ 2.43 µM)
MIC (A. baumannii HUMC1 [1]; Acinetobacter baumannii, HUMC1, HUMC1, MHII (CAMHB), read-out: MIC): 4 µg/mL (≈ 4.86 µM)
MIC (A. baumannii HUMC1 [1]; Acinetobacter baumannii, HUMC1, HUMC1, RPMI + Essential Amino Acid Solution (50×), read-out: MIC): 6.25 µg/mL
MIC (A. baumannii HUMC1 [1]; Acinetobacter baumannii, HUMC1, HUMC1, RPMI + L-Histidine 0.5 mM): 12.5 µg/mL
MIC (A. baumannii HUMC1 [1]; Acinetobacter baumannii, HUMC1, HUMC1, RPMI + L-Tryptophan 0.125 mM): 12.5 µg/mL
difference in MICs at lower temperature (A. baumannii HUMC1 [1]; HUMC1, 25° C. or 30° C. compared to 37° C., MHII or RPMI): did not observe any difference
MIC (A. baumannii HUMC1 [1]; HUMC1, MHII (CAMHB in b45)): 3.125 µg/mL (≈ 3.8 µM)
MIC (A. baumannii HUMC1 [1]; HUMC1, MHII (CAMHB in b45), listed as Rifampin): 3.125 µg/mL (≈ 3.8 µM)
MIC (A. baumannii HUMC1 [1]; HUMC1, MHII (CAMHB), listed as RIF): 2 µg/mL and 3.125 µg/mL
MIC (A. baumannii HUMC1 [1]; HUMC1, RPMI): 3.125 µg/mL (≈ 3.8 µM)
MIC (A. baumannii HUMC1 [1]; HUMC1, RPMI, listed as Rifampin): 3.125 µg/mL (≈ 3.8 µM)
survival (A. baumannii HUMC1 [3]; 5 mg/kg for 3 days, 2 days post infection): < 20%
survival (A. baumannii HUMC1 [3]; 5 mg/kg/daily for 3 days, oral gavage): did not protect from mortality
survival (A. baumannii HUMC1 [3]; 5 mg/kg/daily for 3 days, oral gavage, listed as RFP): did not improve survival vs. control
survival (A. baumannii HUMC1 [3]; 5 mg/kg/daily for 3 days, oral gavage, listed as RIF): did not do any better as compared to the PBS control group
lung CFUs (A. baumannii HUMC1 [3]; 5 mg/kg/daily for 3 days, oral gavage, lungs at 24 hrs post infection): did not reduce CFUs compared to control
bacterial burden (A. baumannii HUMC1 [3]; murine pneumonia, 5 mg/kg, day 7 post-infection): ~6.5 Log10(CFU/mg lung)
MIC (A. baumannii [4]; A. baumannii (strain not named), MHII): 4 µg/mL (≈ 4.86 µM)
MIC (A. baumannii [4]; A. baumannii (strain not named), RPMI with serum): 4 µg/mL (≈ 4.86 µM)
MIC (A. baumannii [4]; A. baumannii VA-AB21, MHII): 3.12 µg/mL (≈ 3.8 µM)
MIC (A. baumannii [4]; A. baumannii VA-AB21, RPMI): > 6.12 µg/mL
MIC50 (A. baumannii [4]; CAMHB): 3.13 µg/mL (≈ 3.8 µM)
MIC90 (A. baumannii [4]; CAMHB): 6.25 µg/mL (≈ 7.59 µM)
MIC50 (A. baumannii [4]; RPMI): 12.5 µg/mL (≈ 15.2 µM)
MIC90 (A. baumannii [4]; RPMI): 25 µg/mL (≈ 30.4 µM)
MIC (A. baumannii [4]; ATCC17978, A. baumannii ATCC17978 and HUMC1, MHII): 2 µg/mL (≈ 2.43 µM)
MIC (A. baumannii [4]; ATCC17978, A. baumannii ATCC17978 and HUMC1, RPMI): 8 µg/mL (≈ 9.72 µM)
Mutation Frequency (A. baumannii [5]; A. baumannii ABNIH1, MHII): 4.17E−08
Mutation Frequency (A. baumannii [5]; A. baumannii ATCC17978, MHII): 5.14E−09
Mutation Frequency (A. baumannii [5]; A. baumannii ATCC17978, TSA): 7.95E−09
Mutation Frequency (A. baumannii [5]; A. baumannii HUMC1, MHII): 9.19E−09
Mutation Frequency (A. baumannii [5]; A. baumannii HUMC1, TSA): 1.44E−08
Mutation Frequency (A. baumannii [5]; A. baumannii LAC-4, MHII): 2.62E−08
protection at minimum dose test (A. baumannii HUMC1 [6]; IV infection, RIF 10 or 30 mg/kg/daily for 3 days): only partially protective
survival (A. baumannii HUMC1 [6]; bacteremia model, 10 mg/kg for 3 days, 2 days post infection, PBS/control 0%): about 50%
protection (A. baumannii HUMC1 [6]; murine bacteremia, 10 mg/kg): 50%
MIC (E. coli; MHII): 6.25 µg/mL (≈ 7.59 µM)
MIC (E. coli; RPMI): 25 µg/mL (≈ 30.4 µM)
protection (Acinetobacter baumannii): only a partial protection
MIC (S. aureus LAC [7]; MHII): 0.025 µg/mL (≈ 0.0304 µM)
MIC (S. aureus LAC [7]; RPMI): 0.05 µg/mL (≈ 0.0608 µM)
Mutation Frequency (S. aureus LAC [8]): 9.49E−08
IC50 (A. baumannii HUMC1 [2]; [15]): 7.99 µM
IC50 (A. baumannii HUMC1 [2]; [16]): 7.99 µM
IC50 (A. baumannii HUMC1 [2]; [17]): 11 µM
